Laboratory results: US20170298314A1, “NANO-DROPLET PLATE” (Research Foundation of the City University of New York, priority 2016, published 2017)

Tested on: HEK 293 cells
Assay: Penetration of FAM-labeled cell permeable peptide into HEK 293 cells in alginate gel drops, CLSM imaging
Type: cell-based, Human
Settings: 15 μg/mL, 5 mins incubation, 1% w/v alginate, 63× oil immersion lens
Description: High resolution observation of reactions between peptides and cells. Not only should proteins and peptides diffuse through the gel, they should also be able to react with cells, for drug screening applications. […] Sodium alginate solution (1% w/v) was mixed with a HEK 293 cell suspension and used as a source solution for single dispensing on 750 μm diameter nDAP anvils using a single robotically controlled rod. The alginate was cured with 1% calcium chloride for 5 min. […] The holder was filled with medium and imaged using a confocal microscope (CLSM). After the cells were imaged, a 15 μg/mL solution of (Arg)9 was introduced using a syringe, displacing the medium. […] The holder enables observation of single cells at high resolution while permitting the exchange of solutions without interfering with the gel anchor on the nDAPs.

Question: For (Arg)9, which “penetration into HEK 293 cells through gel” value is on record?
Answer: Two cells with cell permeable protein were clearly seen
